Where “and” joins values, the source holds several entries; their conditions need not be identical. Equal entries are not always repeated. Where two headings read alike, the source gives them in different places.
How the values were obtained:
[1] = Two-photon excitation, fluorescence intensity vs. excitation power; format: physicochemical
Protocol: Experiments of two-photon excitation of Ia-1 were conducted. Results are represented on FIG. 8. The power function fit to the data gives a power of 1.92±0.10—within one SD of 2.0, as expected for two-photon excitation evidencing that the measured fluorescence was indeed two-photon excited.

[2] = Determination of fluorescence quantum yield; format: physicochemical; conditions: rhodamine 101 as reference standard
Protocol: The quantum yields φ of Ia-1 were calculated from the slope of the integrated spectral emission (545 to 700 nm) of Ia-1 in the presence (2 mM) or absence (0 mM, 10 mM EGTA) of Ca^2+ vs. absorbance at 535 nm using rhodamine 101 (φ=1.0 in absolute ethanol) as a reference standard. A solvent correction was applied for the comparison of the fluorescence quantum yields of Ia-1 and rhodamine 101. The quantum yields φ were calculated using the following equation where φ is the quantum yield, s is the value of the observed slope and η is the refractive index of the solvent used.
[formula] • The calculations gave: φCalcium free=0.0089 • φCa2+=0.4541 II.4. Two-Photon Excitation of Compound Ia-1

[3] = system: Purkinje cells; test: High-speed random access two-photon microscopy with climbing fiber stimulation in cerebellar slices; format: cell-based, mice; conditions: exponential fit, n=59 spines from 7 cells, 300 μM in pipette
Protocol: For high speed imaging experiments, acute 260 μm thick slices were obtained from the cerebellar vermis of P60 mice and superfused with extracellular saline medium.
Climbing fiber stimulation-evoked transient [Ca^2+] changes in Purkinje cell spines were recorded at high acquisition rate (>2 kHz) by two-photon random-access microscopy, a technique is based on the use of acousto-optic deflectors (AODs), which enable selective scanning of defined points. Purkinje cells were recorded in current-clamp mode, using 2-3MΩ patch pipettes containing 300 μM Ia-1. Recordings were obtained by use of a Multiclamp 700B (Molecular Devices). Following the dialysis of Ia-1, Purkinje cells in slices were imaged under a 25× Leica water immersion objective (HCX IRAPO L 25×/0.95). […] A multifunction card (NI-PCI-MIO 16 E-4) was used to pass all the triggers necessary to synchronize the imaging and the electrophysiology and to control the piezo-electric device that moves the objective in Z. Fluorescence photons were detected by cooled AsGaP photomultipliers (H7421-40, Hamamatsu) discriminated and counted on a fast digital card.
During stimulation of the climbing fiber, fluorescence traces were acquired from multiple spines (range: 4 to 14) at rates over 1 kHz (range 2.2 to 4.8 kHz) (FIGS. 11e and 11f).

[4] = Fluorimetric titration against Ca2+ (cuvette calibration, Hill fit); format: binding; conditions: for Kd: 100 mM KCl, 30 mM MOPS, pH 7.2, Hill fit
Protocol: All the solvents were of analytical grade. Chemicals were purchased from commercial sources. ^1H-NMR and ^13C-NMR were measured on a Bruker avance 111-300 MHz spectrometer with chemical shifts reported in ppm (TMS as internal standard). Mass spectra were measured on a Focus GC/DSQ II spectrometer (ThermoScientific) for IC and an API 3000 spectrometer (Applied Biosystems, PE Sciex) for ES. All pH measurements were made with a Mettler Toledo pH-Meter. Fluorescence spectra were recorded on a JASCO FP-8300 spectrofluorometer. Absorption spectra were determined on a VARIAN CARY 300 Bio UV-Visible spectrophotometer. All measurements were done at a set temperature of 25° C. The purity of the dyes were checked by RP-HPLC C-18, eluant: ACN 0.1% TFA/Water 0.1% TFA, method: 20/80 to 100/0 within 20 min then 100/0 for 10 min. detection at λAbs=254 nm. The apparent dissociation constant for calcium (Kd Ca^2+) was measured with a calcium calibration buffer kit from Invitrogen.
A fluorimetric titration of Ia-1 (5 μM) against Ca^2+ in a buffer containing (in mM) 100 KCl and 30 MOPS (pH 7.2) was performed.
A fluorimetric titration of Ia-1-Dextran-6000 conjugate against Ca^2+ in a buffer containing (in mM) 100 KCl and 30 MOPS (pH 7.2) was also conducted.
A fluorimetric titration of Ic-1 and Ic-2 against Ca^2+ in a buffer containing (in mM) 100 KCl and 30 MOPS (pH 7.2) was also conducted. […] The normalised fluorimetric titrations against Ca^2+ of Ia-1, Ic-1 and Ic-2 are represented in FIG. 13.

[5] = in absolute ethanol; cited from earlier work
[6] = read-out: apparent dissociation constant for Ca2+

[N-]=[N+]=NCCCCCCOc1cc(OCCOc2ccccc2N(CC(=O)O)CC(=O)O)c(N(CC(=O)O)CC(=O)O)cc1C1=c2cc3c4c(c2Oc2c1cc1c5c2CCCN5CCC1)CCC[N+]=4CCC3 [Ia-1]
power of the power function fit (fluorescence intensity vs. excitation power) [1]: 1.92±0.10
quantum yield φ, calcium free ([2]; 0 mM Ca2+, 10 mM EGTA): 0.0089
quantum yield φ, Ca2+ bound (maximum quantum yield) ([2]; 2 mM Ca2+): 0.4541 and 0.45
rise time τ of Ca2+ transients [3]: 1.30 ± 0.26 ms
Kd ([4]; read-out: apparent dissociation constant (KD) for Ca2+): 258 nM
increase of fluorescence on binding [Ca2+] ([4]; cuvette calibration experiments): 50 fold

[N-]=[N+]=NCCCCCCOc1cc(OCCOc2ccc(Cl)cc2N(CC(=O)O)CC(=O)O)c(N(CC(=O)O)CC(=O)O)cc1C1=c2cc3c4c(c2Oc2c1cc1c5c2CCCN5CCC1)CCC[N+]=4CCC3 [Ic-1]
Kd [4, 6]: 1700 nM

[N-]=[N+]=NCCCCCCOc1cc(OCCOc2cc(F)ccc2N(CC(=O)O)CC(=O)O)c(N(CC(=O)O)CC(=O)O)cc1C1=c2cc3c4c(c2Oc2c1cc1c5c2CCCN5CCC1)CCC[N+]=4CCC3 [Ic-2]
Kd [4, 6]: 320 nM

O=C(O)c1ccccc1C1=c2cc3c4c(c2Oc2c1cc1c5c2CCCN5CCC1)CCC[N+]=4CCC3.[Cl-] [rhodamine 101]
quantum yield φ of reference standard [5]: 1.0
